Earlier results, collected in patent publication US20070099889A1, “Use of pseudan and pseudan inclusion bodies” (priority 2005, published 2007).

Conditions: isolated from filtrates of 4 to 6 week old culture of P. aeruginosa

CCCCCCCCCc1cc(O)c2ccccc2n1 [4-hydroxy-2-nonylquinoline]
antibiotic activity: exhibit antibiotic activity
